From patent US7579468B2, “Methods of modulating neurotrophin-mediated activity” (PainCeptor Pharma Corporation, priority 2005, dated 2009)
Entries after “also recorded” stand apart in the source; their conditions may differ.

What was measured:
Male Sprague-Dawley rats [1] = assay: Formalin Model - model of acute tonic pain; assay type: in vivo, rat; details: 6.5, 12.5 and 25 mg/kg i.p., Phase II
Method: Male Sprague-Dawley rats were given a subcutaneous injection of 50 μl of 2.5% formalin into the plantar surface of one hindpaw using a 27 gauge syringe needle, and nociceptive responses were measured for the next 60 min. Compound or vehicle was administered (i.p. or s.c.) 15-45 minutes prior to the formalin injection. A nociceptive score was determined for each 5 min block by measuring the amount of time spent in each of four behavioral categories: 0, the injected hindpaw is indistinguishable from that of the contralateral paw; 1, the injected paw has little or no weight placed on it; 2, the injected paw is elevated and is not in contact with any surface; 3, the injected paw is licked, bitten, or shaken. A weighted nociceptive score, ranging from 0 to 3 was calculated by multiplying the time spent in each category by the category weight, summing these products, and dividing by the total time for each 5 min block of time (Coderre et al., Pain 1993; 54: 43). On the basis of the resulting response patterns, 2 phases of nociceptive behaviour were identified and scored: first phase (P1; 0-5 min) and second phase (P2; 11-40 min).
Statistical analysis was performed using Prism™ 4.01 software package (GraphPad, San Diego, Calif., USA). […]

Mice = assay: Writhing Test (acetic acid abdominal contraction test); assay type: in vivo, mouse
Method: The acetic acid abdominal contraction test (Martinez et al., Pain 1999; 81: 179) was used to determine the efficacy of different compounds in a model of acute visceral chemical nociception. […] Compound or vehicle was administered (i.p. or s.c.) 15-45 minutes prior to the acetic acid injection. Each episode of writhing is characterized by a lengthwise stretching of the torso with a concomitant arching of the back.
Statistical analysis was performed using Prism™ 4.01 software package (GraphPad, San Diego, Calif., USA). The difference in response levels between treatment groups and control vehicle group was analyzed using an ANOVA followed by Bonferroni's method for post-hoc pair-wise comparisons. A p value <0.05 was considered to be significant.

Male Sprague-Dawley rats [2] = assay: Spared Nerve Injury (SNI) model of neuropathic pain; assay type: in vivo, rat; details: Von Frey filaments, 90 min post-treatment, Compound 11 3 and 10 mg/kg i.p., Compound 107 20 mg/kg i.p.
Excerpt: The Spared Nerve Injury (SNI) model (Decosterd et al., Pain 2000; 87: 149) was used to induce chronic neuropathic pain. Male Sprague-Dawley rats were anesthetized with isoflurane, and two of the three terminal branches of the sciatic nerve (tibial and common peroneal nerves) were transected, leaving the remaining sural nerve intact. Animals develop thermal and mechanical hyperalgesia and allodynia, as well as spontaneous pain or dysesthesia that last month after the nerve injury.
Mechanical allodynia testing: Pre- and post-injury baselines as well as post-treatment values (vehicle or compound-treated animals) for mechanical allodynia were evaluated using Von Frey filaments (Stoelting, Wood Dale, Ill., USA) with varying stiffness. […] The mean and standard error of the mean (SEM) were determined for each paw in each treatment group (ipsilateral/injured paw and contralateral/non-injured paw). […] Effects of compounds were evaluated two weeks after the injury. Compound or vehicle was administered (i.p. or s.c.) and effects on mechanical allodynia were measured at different time points after dosing (e.g., 30, 60 and 90 min.).
Data analysis: Statistical analyses were conducted using Prism™ 4.01 (GraphPad, San Diego, Calif., USA). Mechanical hypersensitivity of the injured paw was determined by comparing contralateral to ipsilateral paw values within the vehicle group at each time point. […]

PC12 cells = assay: NGF-induced neurite outgrowth in PC12 cells; assay type: cell-based, rat; details: 4 days of exposure to NGF
Method: This assay was run as a further functional marker of NGF antagonism and takes advantage of the differentiation of PC12 cells (neurite outgrowth) induced by NGF. Cultures of PC12 cells were grown on Terasaki plates pre-coated with poly-D-lysine. Cells were exposed to NGF (1-50 (preferably 5) ng/ml) to induce neurite outgrowth as described elsewhere [L A Greene & A S Tischler, Establishment of a noradrenergic clonal line of rat adrenal pheochromocytoma cells which respond to nerve growth factor, Proc Natl Acad Sci USA. 1976 July; 73(7): 2424-2428]. In addition to NGF, cells were exposed to varying concentration of the compounds or vehicle. Following 4 days of exposure to NGF in the presence or absence of compound, neurite outgrowth was quantified. A neurite was scored if its caliber from origin to terminal was approximately the same and the length was equal to or greater than 1.5 the cell body diameter. The number of neurite bearing cells per total number of viable cells was calculated for each condition; the number of cells with neurites in the presence of NGF (without compound exposure) was considered to represent maximal (100%) outgrowth, to which the inhibitory effect of compounds of the invention on NGF-induced outgrowth was compared.

`CC(=O)Nc1cc2c3c(cc(NC(C)=O)cc3c1)C(=O)N(CCCC(=O)O)C2=O` [Compound 11, 4-(5,8-Bis-acetylamino-1,3-dioxo-1H,3H-benzo[de]isoquinolin-2-yl)-butyric acid] was tested, and the “Antinociceptive effect in the Formalin Test” value (Male Sprague-Dawley rats [1]) was “significant dose-dependent antinociceptive effect; also recorded: significant antinociceptive effects”, the “Number of abdominal contractions (writhing)” value (Mice; 15 mg/kg i.p., 30 minutes following acetic acid, vehicle 54±6) was 28±4 and the “Antinociceptive effect in the Writhing Test” value (Mice; Compound 63 100 mg/kg i.p., Compound 11 15 mg/kg i.p., 10-20 minutes before acetic acid) was “significant antinociceptive effects”. The “Effect on mechanical allodynia in the SNI model” value (Male Sprague-Dawley rats [2]) was “significant dose-dependent reversal of the mechanical allodynia; also recorded: significant antinociceptive effects” and the “Inhibition of NGF-induced neurite outgrowth” value (PC12 cells) was “effectively inhibit neurite outgrowth induced by NGF”.
